We go through one substance from US20160194631A1, “Methods for Modulation of Autophagy Through the Modulation of Autophagy-Inhibiting Gene Products” (Harvard Medical School, priority 2009, published 2016).

Assay [1] has as its system H4 cells stably expressing LC3-GFP. Kind of assay: LC3-GFP autophagosome translocation image-based assay. The format is cell-based, human. To be noted: H4 cells treated with tunicamycin. The procedure:
H4 human neuroblastoma cells were cultured under standard tissue culture conditions in DMEM media supplemented with 10% normal calf serum, penicillin/streptomycin, sodium pyruvate (Invitrogen) and, where appropriate, 0.4-1.2 mg/mL G418. LC3-GFP and FYVE-dsRed H4 cells were generated as described in Zhang et al., PNAS, 102, 15545-15550 (2007). To create a stable line expressing Lamp1, H4 cells were transfected with Lamp1-RFP plasmid using TransIT LT1 reagent (Minis), followed by selection with 0.4 mg/mL G418. Bcl-2 expressing cell lines were created by infecting LC3-GFP and FYVE-dsRed H4 cells with pBabe-Bcl-2 retrovirus, followed by selection with […] puromycin.
For the cytokine assays, cells were seeded at 0.5×10^5 in full medium in either 24-well (western) or 96-well (LC3-GFP quantification) plates. After 24 hours, cells were washed in PBS and serum-free OptiMEM medium (Invitrogen) was added along with the indicated growth factors and/or cytokines for an additional 24 hours. Growth factors and cytokines used include human TNFα (Cell Sciences), human LIF (GeneScript Corporation), human FGF2 (ProSpec), human IGF1 (ProSpec), human SDF1 (Prospec) and human CLCF1 (R&D Systems). To induce starvation, cells were cultured for 24 hours in full media, washed in PBS and cultured for additional 4 hours in HBSS bedia (Invitrogen). […]
For high-throughput screens, cells were imaged on an automated CellWoRx microscope (Applied Precision) at 10× magnification using 2 wavelengths (350 nm to detect Hoechst, 488 nm to detect LC3-GFP) for the primary screens and 3 wavelengths (350 nm, 488 nm and 550 nm to detect Lamp1-RFP or FYVE-dsRed) for the secondary screens. All images were quantified using VHSscan and VHSview image analysis software (Cellomics). Total cell number, total LC3-GFP intensity/cell as well as number, area and intensity of LC3-GFP positive autophagosomes/cell were scored. All dead and mitotic cells were excluded from analysis based on nuclear intensity. The final autophagy score for each well was obtained by multiplying the total autophagosome intensity/cell by the number of autophagosomes/cell and dividing by the average cell intensity. This formula was empirically determined to accurately measure LC3-GFP translocation from cytosol into autophagosomes as reflected by consistently significant z-scores and p-values when using siRNAs against mTOR and Atg5 controls. FYVE-dsRed and Lamp1-RFP scores were obtained in a manner similar to LC3-GFP scores, except that for Lamp1-RFP, which measures total accumulation of the reporter rather than its translocation, division by the average cell intensity was omitted.
For low-throughput follow-up analysis, cells were grown on glass cover slips. Following fixation in 4% paraformaldehyde and counterstaining with Hoechst, cover slips were mounted in 50% glycerol, 0.1% n-propyl gallate/PBS. Cells were imaged at 40× magnification on a Nikon Eclipse E800 microscope. Cell numbers, cell area and intensity, as well as autophagosome number and intensity, were quantified using Metamorph software. Autophagy was scored as number of autophagosomes per cell.
Human neuroblastoma H4 cells stably expressing the LC3-GFP reporter were used to identify genes involved in the regulation of autophagy in mammals. […] When autophagy is induced in these cells, LC3-GFP is recruited from the cytosol and can be visualized in a punctate pattern corresponding to autophagosomes. In order to validate the system, cells were transfected with siRNA against either the essential autophagy mediator ATG5 or against mTOR, a suppressor of starvation-induced autophagy. Following 72 hours of incubation under normal nutritional conditions, […].

The next assay deals with GRP78 and GRP94. Kind of assay: In-cell-western of KDEL (GRP78/GRP94) expression (ER stress). The class given is cell-based, human. To be noted: H4 cells treated with tunicamycin. The procedure: For quantitative analysis of mTORC1 signaling and induction of endoplasmic reticulum stress, in-cell-western analysis of rpS6 phosphorylation and KDEL (GRP78/GRP94) expression (‘KDEL’ disclosed as SEQ ID NO: 2), respectively, were performed. H4 cells were cultured in 384-well plates and fixed and counterstained as described for the LC3-GFP assay. Following imaging, the cells were permeabilized in PBS containing 0.2% Tx-100 and stained with Alexa-680 NETS-ester, a non-specific lysine reactive probe used to measure relative cell number, at 20 ng/mL for 15 minutes. Subsequently, the cells were washed with PBS containing 0.2% Tx-100 and incubated for 30 minutes in blocking buffer (LiCOR Blocking Buffer diluted 1:1 with PBS+0.2% Tx-100). Cells were then incubated overnight with a rabbit-anti-rpS6 phospho-235/236 (Cell Signaling Technologies), or mouse-anti-KDEL (Stressgen) antibody (‘KDEL’ disclosed as SEQ ID NO: 2) diluted 1:1000 in blocking buffer. […] The intensities of both, the rpS6 phospho-235/236 or KDEL staining (‘KDEL’ disclosed as SEQ ID NO: 2), and of NHS-ester staining were integrated, and the normalized phospho-S6 or KDEL score (‘KDEL’ disclosed as SEQ ID NO: 2) were calculated by dividing phospho-rpS6 or KDEL intensity by NHS-ester intensity (‘KDEL’ disclosed as SEQ ID NO: 2). […]

As for tunicamycin [reference compound], in assay [1], the autophagy result is given as “increase in autophagy”. Further, the “levels of GRP78 and GRP94” value with GRP78 and GRP94 is on record as “dose-dependent up-regulation”.
